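These data come from cells grown in 96-well plates and exposed to compound for 48 hours at five concentrations. GI50 marks 50% less growth. TGI marks complete inhibition of growth.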
Tests used:
Assay in all cases: NCI-60 cell line screen, 48 h
[1] = test system: BT-549 breast
[2] = test system: IGROV1 ovarian
[3] = test system: SN12C renal
[4] = test system: OVCAR-5 ovarian
[5] = test system: NCI-H522 lung
[6] = test system: MDA-MB-435
[7] = test system: OVCAR-3 ovarian
[8] = test system: MDA-MB-231 breast
[9] = test system: HOP-18 NSCLC
[10] = test system: M19-MEL melanoma

## O/N=C\c1c2c(cc3c1CCC3)CCC2
[1]
  TGI: > 100 µM
[2]
  TGI: > 100 µM
[3]
  TGI: > 100 µM
[4]
  TGI: > 100 µM
[5]
  TGI: > 100 µM
[6]
  TGI: > 100 µM
[7]
  TGI: > 100 µM
[8]
  TGI: > 100 µM

## CN(C(=O)Cc1ccccc1)n1cn[n+](CC(=O)OC(C)(C)C)c1
[1]
  TGI: > 10 µM
[2]
  TGI: > 10 µM
[3]
  TGI: > 10 µM
[4]
  TGI: > 10 µM
[5]
  TGI: > 10 µM
[6]
  TGI: > 10 µM
[7]
  TGI: > 10 µM
[8]
  TGI: > 10 µM

## Cc1c2cc[n+](Cc3ccc(I)cc3)cc2c(C)c2c1[nH]c1ccccc12
[2]
  TGI: > 25 µM
[3]
  TGI: > 25 µM
[4]
  TGI: 11.3 µM
[5]
  TGI: 5.59 µM
[9]
  TGI: > 13.2 µM
[7]
  TGI: 3.72 µM
[10]
  TGI: 1.49 µM

## S=c1ncc(-c2cncc(-c3cnc(=S)[nH]c3)n2)c[nH]1
[1]
  TGI: > 100 µM
[2]
  TGI: > 100 µM
[3]
  TGI: > 100 µM
[4]
  TGI: > 100 µM
[5]
  TGI: > 100 µM
[6]
  TGI: > 100 µM
[7]
  TGI: > 100 µM
[8]
  TGI: > 100 µM

## Cc1nn2c(=O)c([N+](=O)[O-])c(/C=C/c3ccc(F)cc3)nc2s1
[1]
  TGI: 18.8 µM
[2]
  TGI: 22.6 µM
[3]
  TGI: 21.2 µM
[4]
  TGI: 18 µM
[5]
  TGI: 18 µM
[6]
  TGI: 10.5 µM
[7]
  TGI: 16.6 µM
[8]
  TGI: 26.8 µM

## C/C(=C\C(=O)Nc1ccc2n[nH]nc2c1)Nc1ccc2n[nH]nc2c1
[2]
  TGI: > 100 µM
[3]
  TGI: > 100 µM
[4]
  TGI: > 100 µM
[5]
  TGI: > 100 µM
[9]
  TGI: > 100 µM
[7]
  TGI: > 100 µM
[10]
  TGI: > 100 µM

## O=CN1CCN(c2ccc3ccc(=O)[nH]c3n2)CC1
[1]
  TGI: > 100 µM
[2]
  TGI: > 100 µM
[3]
  TGI: > 100 µM
[4]
  TGI: > 100 µM
[5]
  TGI: > 100 µM
[6]
  TGI: > 100 µM
[7]
  TGI: > 100 µM
[8]
  TGI: > 100 µM

## CC(=O)O[C@H]1[C@@H](N2CCOCC2)C[C@H]2[C@@H]3CC=C4C[C@@H](N5CCCC5)CC[C@]4(C)[C@H]3CC[C@@]21C
[1]
  TGI: > 100 µM
[2]
  TGI: > 100 µM
[3]
  TGI: > 100 µM
[4]
  TGI: > 100 µM
[5]
  TGI: > 100 µM
[6]
  TGI: > 100 µM
[7]
  TGI: > 100 µM
[8]
  TGI: > 100 µM

## CCCOC(=O)c1cc(O)c(O)c(O)c1
[1]
  TGI: > 100 µM
[2]
  TGI: > 100 µM
[3]
  TGI: > 100 µM
[4]
  TGI: > 100 µM
[5]
  TGI: 77 µM
[6]
  TGI: 81.1 µM
[7]
  TGI: 79.8 µM
[8]
  TGI: > 100 µM

## CCOC(=O)c1ccc(N(CCOS(C)(=O)=O)CCOS(C)(=O)=O)cc1
[1]
  TGI: > 100 µM
[2]
  TGI: > 100 µM
[4]
  TGI: > 100 µM
[5]
  TGI: 41.1 µM
[6]
  TGI: > 100 µM
[7]
  TGI: > 100 µM
[8]
  TGI: > 100 µM

## NC1=Nc2cc(C(F)(F)F)ccc2Sc2nc3ccccc3n21
[1]
  TGI: > 100 µM
[2]
  TGI: > 100 µM
[3]
  TGI: > 100 µM
[4]
  TGI: > 100 µM
[5]
  TGI: > 71.1 µM
[6]
  TGI: > 100 µM
[7]
  TGI: > 100 µM
[8]
  TGI: > 100 µM

## CC(C)(C)OC(=O)Cn1ncn(NC(=O)Cc2ccccc2)c1=S
[1]
  TGI: > 10 µM
[2]
  TGI: > 10 µM
[3]
  TGI: > 10 µM
[4]
  TGI: > 10 µM
[5]
  TGI: > 10 µM
[6]
  TGI: > 10 µM
[7]
  TGI: > 10 µM
[8]
  TGI: > 10 µM

## NCCCN(CCCCN(CCCN)CCCc1ccccc1)CCCc1ccccc1
[1]
  TGI: 10.1 µM
[2]
  TGI: 8.88 µM
[3]
  TGI: 16.9 µM
[4]
  TGI: 24.9 µM
[5]
  TGI: 7.17 µM
[6]
  TGI: 3.27 µM
[7]
  TGI: 3.34 µM
[8]
  TGI: 4.39 µM

## CCOP1(=O)CC(C)=C(Cl)C(OC)C1 (stereo not given)
[1]
  TGI: > 100 µM
[2]
  TGI: > 100 µM
[3]
  TGI: > 100 µM
[4]
  TGI: > 100 µM
[5]
  TGI: > 100 µM
[6]
  TGI: > 100 µM
[7]
  TGI: > 100 µM
[8]
  TGI: > 100 µM

## CSc1c(C(C)=O)c(O)n(-c2ccc(C)cc2)c(=O)c1C#N
[1]
  TGI: > 100 µM
[2]
  TGI: > 100 µM
[3]
  TGI: > 100 µM
[4]
  TGI: > 100 µM
[5]
  TGI: > 100 µM
[6]
  TGI: > 100 µM
[7]
  TGI: > 100 µM
[8]
  TGI: > 100 µM

## Nc1nc(SCc2ccccc2Cl)c2ncn(C3OC(CO)C(O)C3O)c2n1 (stereo not given)
[2]
  TGI: > 100 µM
[3]
  TGI: > 100 µM
[4]
  TGI: > 100 µM
[5]
  TGI: > 100 µM
[9]
  TGI: > 100 µM
[7]
  TGI: > 100 µM
[10]
  TGI: > 100 µM

## N#C[S-].[La+3].c1ccc(-c2ccccn2)nc1.c1ccc(-c2ccccn2)nc1.c1ccc(-c2ccccn2)nc1
[2]
  GI50: 25.6 µM
  TGI: 60.5 µM
[3]
  GI50: 19.2 µM
  TGI: > 100 µM
[4]
  GI50: 15 µM
  TGI: 55.1 µM
[9]
  GI50: 27.1 µM
  TGI: > 100 µM
[7]
  GI50: 64.6 µM
  TGI: > 100 µM
[10]
  GI50: 38 µM
  TGI: > 100 µM

## O=C1c2cc3c(cc2NC(c2ccccc2F)C1O)OCO3 (stereo not given)
[1]
  TGI: > 100 µM
[2]
  TGI: > 100 µM
[3]
  TGI: > 66.9 µM
[4]
  TGI: > 75.9 µM
[5]
  TGI: 34.4 µM
[6]
  TGI: 13.6 µM
[7]
  TGI: > 62.7 µM
[8]
  TGI: > 76.2 µM

## CN(C)S(=O)(=O)c1ccc2[nH]c(O)c(C3=Nc4ccccc4C3=O)c2c1
[1]
  TGI: 28.9 µM
[2]
  TGI: 27.4 µM
[3]
  TGI: > 100 µM
[4]
  TGI: > 100 µM
[5]
  TGI: > 100 µM
[6]
  TGI: > 100 µM
[7]
  TGI: > 100 µM
[8]
  TGI: 52.3 µM

## O=C(/C=C/c1ccc(-c2ccccc2)cc1)NCc1ccc(C(=O)NCCc2ccccc2)cc1
[1]
  TGI: > 100 µM
[2]
  TGI: > 100 µM
[3]
  TGI: > 100 µM
[4]
  TGI: > 100 µM
[5]
  TGI: > 100 µM
[6]
  TGI: > 100 µM
[7]
  TGI: > 100 µM
[8]
  TGI: > 100 µM

## COc1ccc(-c2nc3ccccc3c(=O)[nH]2)cc1
[1]
  TGI: > 100 µM
[2]
  TGI: > 100 µM
[3]
  TGI: > 100 µM
[4]
  TGI: > 100 µM
[5]
  TGI: > 100 µM
[6]
  TGI: > 100 µM
[7]
  TGI: > 100 µM
[8]
  TGI: > 100 µM

## NC(Cc1ccccc1)C(=O)OCN1C(=O)C2C3C=CC(C2C1=O)C1C(=O)N(COC(=O)C(N)Cc2ccccc2)C(=O)C31 (stereo not given)
[1]
  TGI: > 100 µM
[2]
  TGI: > 100 µM
[3]
  TGI: > 100 µM
[4]
  TGI: > 100 µM
[5]
  TGI: > 100 µM
[6]
  TGI: > 100 µM
[7]
  TGI: > 100 µM
[8]
  TGI: > 100 µM

## Nc1nc(Cl)c(CO)c(NCC2(CO)CCC2)n1
[1]
  TGI: > 100 µM
[2]
  TGI: > 100 µM
[3]
  TGI: > 100 µM
[4]
  TGI: > 100 µM
[5]
  TGI: > 100 µM
[6]
  TGI: > 100 µM
[7]
  TGI: > 100 µM
[8]
  TGI: > 100 µM

## CC(=O)c1csc2c1C(=O)c1ccccc1C2=O
[1]
  TGI: 3.01 µM
[2]
  TGI: 6.42 µM
[3]
  TGI: 5.86 µM
[4]
  TGI: 5.45 µM
[5]
  TGI: 4.1 µM
[6]
  TGI: 3.97 µM
[7]
  TGI: > 100 µM
[8]
  TGI: > 62.9 µM

## COC(=O)[C@@H]1c2c(oc3cc(CO)cc(O)c3c2=O)C=C[C@H]1O
[1]
  TGI: 12.4 µM
[2]
  TGI: 26.2 µM
[3]
  TGI: 23.6 µM
[4]
  TGI: 22.8 µM
[5]
  TGI: 3.64 µM
[6]
  TGI: 15.5 µM
[7]
  TGI: 20.7 µM
[8]
  TGI: 27.5 µM
